# Source: patent US20120214760A1, “TREATMENT OF URINARY TRACT INFECTIONS WITH ANTIBACTERIAL AMINOGLYCOSIDE COMPOUNDS” (Achaogen, Inc., priority 2009, published 2012)
# What was measured:
# S. aureus (23) = test: MIC, urinary tract infection isolates; type: cell-based; details: Staphylococcus aureus; S. aureus isolates, including 43.5% oxacillin-resistant strains
# Experimental: (§1) Minimum inhibitory concentrations (MIC) were determined by reference Clinical and Laboratory Standards Institute (CLSI) broth microdilution methods per M7-A7 [2006]. Quality control ranges utilizing E. coli ATCC 25922, P. aeruginosa ATCC 27853 and S. aureus ATCC 29213, and interpretive criteria for comparator agents were as published in CLSI M100-S17 [2007]. Briefly, serial two-fold dilutions of the test compounds were prepared at 2× concentration in Mueller Hinton Broth. The compound dilutions were mixed in 96-well assay plates in a 1:1 ratio with bacterial inoculum. The inoculum was prepared by suspension of a colony from an agar plate that was prepared the previous day. Bacteria were suspended in sterile saline and added to each assay plate to obtain a final concentration of 5×10^5 CFU/mL. The plates were incubated at 35° C. for 20 hours in ambient air.
# (§2) In order to determine the activity of representative antibacterial aminoglycoside compounds against bacterial species that commonly cause complicated urinary tract infections worldwide, isolates were collected from 47 medical centers in the U.S. and Europe (10 countries) from urine or blood culture with the source of bacteremia documented as a urinary tract infection. Strains were susceptibility tested against Example 1, gentamicin, amikacin and 10 comparators by CLSI broth microdilution. These MIC assays were conducted following the same protocol as set forth in Example 110. Pathogens (169 in total) included E. coli, Klebsiella spp., Enterobacter spp., Citrobacter spp., P. mirabilis, M. Morganii, P. aeruginosa, S. aureus and S. saprophyticus.
# P. aeruginosa (19) = test: MIC, urinary tract infection isolates; type: cell-based; details: Pseudomonas aeruginosa; P. aeruginosa isolates
# Experimental: as §1, §2
# [1] = tested on: E. coli, Klebsiella spp., Enterobacter spp. and Citrobacter spp.; test: MIC, urinary tract infection isolates; type: cell-based; details: Escherichia coli, range among E. coli
# Experimental: as §1, §2
# S. saprophyticus (19) = test: MIC, urinary tract infection isolates; type: cell-based; details: Staphylococcus saprophyticus; S. saprophyticus isolates
# Experimental: as §1, §2
# [2] = tested on: P. mirabilis and M. morganii; test: MIC, urinary tract infection isolates; type: cell-based
# Experimental: as §1, §2
# Pathogens (169 in total) = test: Susceptibility testing, all urinary tract infection isolates; type: cell-based; details: all isolates
# Experimental: as §1, §2
# [3] = tested on: K. pneumoniae AKPN 1109, KPC; test: Murine neutropenic thigh model; type: in vivo
# Experimental: Activity is presented as the log10 difference in CFU/thigh after 24 hours of antibiotic treatment compared to CFU/thigh just prior to antibiotic treatment (2 hours post-infection). Total dose per 24 hours is shown; dosing was q12 hours. 6 mice per group, Inoculum=8.3×10^5 CFU.
# (§3) The in vivo activity of Example 1 in the mouse neutropenic thigh model (Andes and Craig. Antimicrob Agents Chemother. 2002, 46:1665-1670) was determined against seven bacterial strains including susceptible Escherichia coli and Klebsiella pneumoniae; multi-drug resistant (MDR) clinical isolates of E. coli and K. pneumoniae that display resistance to multiple antibiotics (including AGs); MRSA; and two K. pneumoniae carbapenemases (KPC)-expressing strains (see Table 5). For this efficacy model, groups of six CD-1 mice were rendered neutropenic by two intraperitoneal injections of cyclophosphamide. The first injection was 150 mg/kg three days prior to infection (day −4), and the second injection was 100 mg/kg one day prior to infection (day −1). On study day 0, animals were inoculated intramuscularly (0.1 ml) with a known number of colony forming units (CFU) of the specified bacterial strain (ATCC 25922, AECO 1003, ATCC 43816, AKPN 1073, AKPN 1109, ATCC 33591 or ASMA 1030), tailored to the virulence of each strain in the model to maximize bacterial load while avoiding mortality in the untreated control arms. Antibiotics were administered via subcutaneous injection at 2 and 14 hours after bacterial challenge. At 26 hours, infected thigh tissue was harvested, homogenized, and plated to count CFU. Untreated control animals were harvested at 2 hours post-infection to assess the initial bacterial load and at 26 hours post-infection to measure growth in the absence of antibiotic treatment.
# [4] = tested on: S. marcescens ASMA 1030, KPC; test: MIC of thigh model strain; type: cell-based; details: Serratia marcescens; Table 5; S. marcescens KPC ASMA 1030
# Experimental: as §1
# [5] = tested on: K. pneumoniae AKPN 1109, KPC; test: MIC of thigh model strain; type: cell-based; details: Klebsiella pneumoniae; Table 5; K. pneumoniae KPC AKPN 1109
# Experimental: as §1
# [6] = tested on: K. pneumoniae ATCC 43816, Susceptible; test: MIC of thigh model strain; type: cell-based; details: Klebsiella pneumoniae, ATCC43816; Table 5; K. pneumoniae Susceptible ATCC 43816
# Experimental: as §1
# [7] = tested on: K. pneumoniae AKPN 1073, MDR; test: MIC of thigh model strain; type: cell-based; details: Klebsiella pneumoniae; Table 5; K. pneumoniae MDR AKPN 1073
# Experimental: as §1
# [8] = tested on: S. aureus ATCC 33591, MRSA; test: MIC of thigh model strain; type: cell-based; details: Staphylococcus aureus; Table 5; S. aureus MRSA ATCC 33591; read-out: MIC
# Experimental: as §1
# E. coli AECO 1003, MDR = test: MIC of thigh model strain; type: cell-based; details: Escherichia coli; Table 5; E. coli MDR AECO 1003; read-out: MIC
# Experimental: as §1
# [9] = tested on: S. marcescens ASMA003, ANT(2″) + AAC(6′); test: MIC, aminoglycoside resistant strain; type: cell-based; details: Table 3
# Experimental: as §1
# (§4) These MIC assays were conducted following the same protocol as set forth in Example 110. As shown, substituted sisomicin derivatives with groups other than methyl at the 6′-position have improved activity against strains expressing the AAC6′-modifying enzymes.
# [10] = tested on: A. calcoaceticus AACA005, AAC(6′)-I; test: MIC, aminoglycoside resistant strain; type: cell-based; details: Table 3
# Experimental: as §1, §4
# [11] = tested on: K. pneumoniae AKPN 1073, MDR; test: Murine neutropenic thigh model; type: in vivo
# Experimental: FIG. 2 is a line graph showing dose-responses of Example 1, gentamicin, and imipenem (positive control) in a murine neutropenic thigh model against an AG-resistant clinical isolate of K. pneumoniae (AKPN 1073). Activity is presented as the log10 difference in CFU/thigh after 24 hours of antibiotic treatment compared to CFU/thigh just prior to antibiotic treatment (2 hours post-infection). Total dose per 24 hours is shown; dosing was q12 hours. 6 mice per group. Inoculum=1.3×10^4 CFU.
# as §3
compound,measurement,setting,value
"CN[C@@H]1[C@@H](O)[C@@H](O[C@@H]2[C@@H](O)[C@H](O[C@H]3OC(CNCCO)=CC[C@H]3N)[C@@H](N)C[C@H]2NC(=O)[C@@H](O)CCN)OC[C@]1(C)O [Example 1, 6′-(2-Hydroxy-ethyl)-1-(4-amino-2(S)-hydroxy-butyryl)-sisomicin]",MIC90,S. aureus (23),2 µg/mL
same,MIC90,P. aeruginosa (19),16 µg/mL
same,MIC90,[1],0.5 to 2 µg/mL
same,MIC50,S. saprophyticus (19),≤ 0.25 µg/mL
same,MIC90,S. saprophyticus (19),0.5 µg/mL
same,MIC90,[2],4 to 8 µg/mL
same,% of strains inhibited,Pathogens (169 in total); at ≦4 μg/ml,90.5%
same,% of strains inhibited,Pathogens (169 in total); at ≦16 μg/ml,98.8%
same,ED50/MIC,[3]; K. pneumoniae AKPN 1109,18-37
same,ED50,"[3]; Klebsiella pneumoniae, sc, neutropenic CD-1 mice, subcutaneous at 2 and 14 hours, K. pneumoniae AKPN 1109",9.2 mg/kg
same,bacterial load after 24 hours of treatment versus initial bacterial load at 2 hours post-inoculation,"[3]; highest test dosage, challenge 8.3×10^5 CFU AKPN 1109, FIG. 3",reduced back to the level of the initial bacterial load
same,MIC,[4],1 µg/mL
same,MIC,[5],0.25 to 0.5 µg/mL
same,MIC,[6],0.5 µg/mL
same,MIC,[7],0.5 µg/mL
same,MIC,[8],4 to 8 µg/mL
same,MIC,"E. coli AECO 1003, MDR",1 µg/mL
same,MIC ASMA003,[9],2 µg/mL
same,MIC AACA005,[10],2 µg/mL
same,ED50/MIC,[11]; K. pneumoniae AKPN 1073,6.6
same,ED50,"[11]; Klebsiella pneumoniae, sc, neutropenic CD-1 mice, subcutaneous at 2 and 14 hours, K. pneumoniae AKPN 1073",3.3 mg/kg
same,bacterial load after 24 hours of treatment versus initial bacterial load at 2 hours post-inoculation,"[11]; two highest dosages, challenge 1.3×10^4 CFU AKPN 1073, FIG. 2",reduced to below the level of the initial bacterial load
